Consider two compounds from paper PMC8707461, “In Vitro and In Vivo Inhibition of MATE1 by Tyrosine Kinase Inhibitors” (Pharmaceutics, 2021).

For series [1], the target named is T1, MATE1 (Homo sapiens, UniProt Q96FL8).
T1 sequence (Q96FL8 1-570): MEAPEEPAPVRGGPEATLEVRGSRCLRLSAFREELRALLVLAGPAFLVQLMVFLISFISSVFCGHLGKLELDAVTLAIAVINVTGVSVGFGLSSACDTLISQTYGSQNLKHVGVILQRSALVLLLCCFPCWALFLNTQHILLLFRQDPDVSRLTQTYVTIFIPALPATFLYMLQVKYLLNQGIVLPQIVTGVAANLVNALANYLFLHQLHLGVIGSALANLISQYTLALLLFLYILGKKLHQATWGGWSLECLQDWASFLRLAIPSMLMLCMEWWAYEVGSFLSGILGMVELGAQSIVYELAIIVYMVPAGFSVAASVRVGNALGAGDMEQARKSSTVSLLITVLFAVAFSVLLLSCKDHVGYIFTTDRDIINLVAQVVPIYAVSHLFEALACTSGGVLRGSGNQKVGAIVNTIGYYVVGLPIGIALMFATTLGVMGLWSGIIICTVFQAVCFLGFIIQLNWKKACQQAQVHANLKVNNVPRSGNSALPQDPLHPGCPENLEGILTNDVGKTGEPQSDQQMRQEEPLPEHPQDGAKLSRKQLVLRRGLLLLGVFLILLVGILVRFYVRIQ
The series is described as follows: [14C]TEA uptake in HEK293 cells overexpressing human MATE1. The procedure: (§1) Uptake experiments in HEK293 cells overexpressing mouse (m) and human (h) OCT2 or MATE1 were performed with radiolabeled tetraethylammonium (TEA) as the model substrate, using standard methods in the presence or absence of TKIs. The cell culture and uptake conditions for cells expressing mMATE1 or hMATE1 were described previously. […] Since the inhibitory potential of various xenobiotics against OCT2 and MATE1 is dependent on preincubation with perpetrator drugs, a 15-min preincubation period with the TKIs was employed unless stated otherwise. All results were normalized to uptake values in cells transfected with an empty vector or DMSO-treated groups.
(§2) MATE1-overexpressed cells were pre-incubated with transport media containing 30 mM ammonium chloride for 20 min at 37 °C following previously published protocol (pH 7.4 for hMATE1 [17, 18, 19] and pH 8.4 for mMATE1 [20, 21]) to ensure interactions can be evaluated between outward-facing MATE1 and substrate uptake before adding inhibitors. Then, preincubation media was removed and cells were incubated with transport media (NH4Cl free) containing radiolabeled compounds. […] The uptake of TEA and metformin was measured by liquid scintillation counting, as described previously. For uptake studies involving platinum drugs, cells were collected with TrypLE, and the pellets were lysed overnight in 0.2% nitric acid. After sonication, total platinum levels were determined by flameless atomic absorption spectrometry.

For the next series, the system named is MATE1 gene. The series can be described thus: MATE1 gene expression by RT-PCR in MATE1-overexpressing cells exposed to TKIs. It is filed as cell-based, human. The source says: RNA was extracted using the Qiagen kit from treated cells in 12-well plates or kidney tissues obtained from untreated or treated mice. Taqman primers Hs00217320_m1 and Mm00840361_m1 were obtained from Thermo Fisher Scientific (Waltham, MA, USA) and used for the hMATE1 and mMATE1 genes. The primers Hs02786624_g1 and Mm99999915_g1 were used as the house-keeping control genes for hGAPDH and mGAPDH, respectively.

The test system of series [2] is human OCT2, or MATE1 transporters. Particulars: dasatinib 10 µM, oxaliplatin 50 µM. The procedure:
as §1
as §2, with “For uptake studies involving platinum drugs, cells were collected with TrypLE, and the pellets were lysed overnight in 0.2% nitric acid.” left out

For series [3], the system named is mouse OCT2, or MATE1 transporters. Particulars: dasatinib 10 µM, oxaliplatin 50 µM. The procedure:
as §1
as §2, with “For uptake studies involving platinum drugs, cells were collected with TrypLE, and the pellets were lysed overnight in 0.2% nitric acid.” left out

For series [4], the system named is MATE1. The series can be described thus: Plasma N-methylnicotinamide (NMN) as MATE1 biomarker in mice after dasatinib. Particulars: wild-type mice, dasatinib 15 mg/kg oral. It counts as in vivo, mouse.
On the set-up of series [5]: method as in PMID 18787054. The settings on record: cited from earlier work.
In series [6] the test system is MATE1. The settings on record: cited from earlier work.
Series [7] is described as follows: Murine plasma pharmacokinetics of total platinum. It is filed as in vivo, mouse. The text has this: For pharmacokinetic studies, plasma and tissue samples were collected from male wild-type mice (8–12 weeks old), and age-matched MATE1-deficient [MATE1(−/−)] mice, and mice additionally deficient for OCT1 and OCT2 [OCT1/2/MATE1(−/−)], following an established protocol. All animals were backcrossed on an FVB strain, were given a standard diet and water ad libitum, and housed and handled in accordance with the University Laboratory Animal Resources (ULAR) Animal Care and Use Committee at The Ohio State University (2015A00000101-R1). […] Concentrations of total platinum in plasma and tissues were measured by flameless atomic absorption spectrometry, as previously reported, by interpolation of unknown readings on linear calibration curves prepared in drug-free nitric acid (0.2%) using linear-least squares regression analysis.

Series [8] can be described thus: Human plasma pharmacokinetics of total platinum, patient with colorectal cancer. It is filed as in vivo. The settings on record: oxaliplatin 85 mg/m2 i.v. infusion. The procedure:
In order to assess the degree of MATE1 inhibition by dasatinib, analyses of N-methylnicotinamide (see below) were performed in plasma samples collected at serial time points (up to 24 h after the end of infusion). Plasma samples were also subjected to dasatinib analysis by liquid chromatography with tandem mass spectrometric detection (LC-MS/MS) and analyzed for total platinum levels by flameless atomic absorption spectrometry. The study protocol (ClinicalTrial.gov Identifier: NCT04164069) was approved by the institutional review board of the -The Ohio State University Comprehensive Cancer Center (OSU IRB #2019C0141, approval date 01 March 2019), and the patient provided written informed consent prior to enrollment.

Series [9] in a line: Urinary excretion of oxaliplatin in mice (metabolic cages). Particulars: mice deficient in MATE1 or both OCT2 and MATE1 vs wild-type; oxaliplatin 10 mg/kg i.p. It is filed as in vivo, mouse.
For series [10] the following is noted: cited from earlier work.
[11] abbreviates: OCT1,2/MATE1-/- mice + dasatinib 15 mg/kg p.o. pretreatment, oxaliplatin 10 mg/kg i.p.
The mark [12] stands for this setting: OCT1,2/MATE1-/- mice, cisplatin 15 mg/kg i.p. or oxaliplatin 10 mg/kg i.p.
Where [13] appears, read: wild-type mice + dasatinib 15 mg/kg p.o. pretreatment, oxaliplatin 10 mg/kg i.p.
Where [14] appears, read: wild-type mice, cisplatin 15 mg/kg i.p. or oxaliplatin 10 mg/kg i.p.
Where [15] appears, read: dasatinib pre-treatment 100 mg p.o.

Broadly, the inhibition is the drop in the measured response relative to a control, in per cent. High values mean a strong effect, low ones a weak effect. What is called IC50 is the concentration that inhibits the measured activity by half. A word on the AUC: it is the area under the concentration-time curve, a measure of exposure. As a reminder, the Cmax is the peak of the concentration-time curve.

For the compound `Cc1nc(Nc2ncc(C(=O)Nc3c(C)cccc3Cl)s2)cc(N2CCN(CCO)CC2)n1` [Dasatinib], the “inhibition of MATE1-mediated uptake of TEA (in words)” value against MATE1 [1] (TKI 10 µM) is “completely inhibited”. The inhibition at 10 µM against MATE1 [1] (human, HEK293 cells overexpressing human MATE1, pH 7.4, probe [14C]TEA (tetraethylammonium), 2 µM) was found to be 95.4%. Moreover, in the series with MATE1 gene, the “expression of MATE1 (in words)” value was “downregulated” and the “suppression of MATE1 gene expression” value is listed as ~ 50%. For the same compound, the “ability of cells to transport oxaliplatin after dasatinib pre-treatment (in words)” value in series [2] is recorded as “dramatically impaired”. In addition, the “ability of cells to transport oxaliplatin after dasatinib pre-treatment (in words)” value in [3] is “dramatically impaired”. Moreover, the “plasma levels of NMN (in words)” value in the series with MATE1 [4] was “transient, statistically significant increase”. Also, the kidney-to-blood concentration ratio in [5] is given as […]. For the same compound, in the series on MATE1 [6], the IC50 is […].

Regarding `O=C1[O][Pt]2([NH][C@@H]3CCCC[C@H]3[NH]2)[O]C1=O` [Oxaliplatin], the AUC in series [7] (setting [11]) amounted to 7530 ± 900 ng·h/mL; in series [7] (setting [12]), 10500 ± 10 ng·h/mL; in series [7] (setting [13]), 12200 ± 710 ng·h/mL; in series [7] (setting [14]) it was 10700 ± 1000 ng·h/mL; in series [8] (setting [15]), 11600 ng·h/mL; in series [8] (without dasatinib), 11300 ng·h/mL. For the same compound, the Cmax came out at 3860 ± 10 ng/mL in series [7] (setting [11]); 3610 ± 180 ng/mL in [7] (setting [12]); 4800 ± 10 ng/mL in series [7] (setting [13]); 2760 ± 40 ng/mL in series [7] (setting [14]); 870 ng/mL in series [8] (setting [15]); 960 ng/mL in series [8] (without dasatinib). The “plasma pharmacokinetic profile after dasatinib pretreatment (in words)” value in series [7] (wild-type mice, single dose of dasatinib 15 mg/kg) is recorded as “unchanged”. The “reduction of urinary excretion” value in series [9] is given as “about 2 fold”. In addition, in series [10], the fecal excretion result is “about 2 % of the dose”. Moreover, the urinary excretion in series [10] is given as > 50 % of the dose.
